Measurements as given in patent US4455441A, “Attractant termiticidal compounds, compositions and methods of use therefor” (Research Foundation of State University of New York, priority 1982, dated 1984).
Like-named read-outs stand apart in the source and are kept apart here.

What was measured:
mice = settings: based on Pattison (1959), cited from earlier work
termites [1] = assay: Trail activity (trail following by termites); assay type: in vivo; settings: at 5 × 10^-6 g/10 c (highest conc. tested)
Text: ^a Value is minimum quantity (in grams) per 10 cm required to elicit
trailfollowing by a total of 8/20 termites in four trails.
^b Maximum number of termites following at 5 × 10^-6 g/10 c
(highest conc. tested).

Reticulitermes flavipes = assay: Bioassay of fluoroalkanols (Petri dish assay), termite toxicity; assay type: in vivo, Reticulitermes flavipes Kollar; settings: quantity impregnated in filter pads required to cause 50% mortality at 3 days
Description: Test compounds were dissolved in dry diethyl ether or dichloromethane and a 1.0 ml portion of the solution was pipetted onto a Gelman sterile 47-mm cellulose pad (Howard and Haverty, 1979). The ether was allowed to evaporate for 10 min, 1.0 ml of distilled water was added to the pad, and the pad was placed in a tight-sealing Gelman 50-mm plastic Petri dish.
Termites (Reticulitermes flavipes Kollar) were collected from rotten logs and tree stumps on the Stony Brook campus. Colonies were kept in trash cans in an insectary (85% RH, 27° C.) for a period of about 6 months before use in this experiment. The experiments were performed in an incubator at +28° C. Undifferentiated larvae above the third instar ("workers") were used in all toxicity tests. Termites were first shaken loose from the interior of the wood, then transferred using mouth aspirators and with soft forceps. The termites were held on filter paper for 24 hours, twenty healthy termites were added to each dish, and the number of dead which were then removed to prevent cannibalism was recorded at daily intervals.
^c Quantity of fluoro compound impregnated in filter pads required to
cause 50% mortality at 3 days.

termites [2] = assay: Maximum attractiveness (above 50% level); assay type: in vivo
[3] = saturated omega-fluoro compound
[4] = estimate from comparison compound C12 satd.
[5] = estimate from comparison compound C18 satd.

Compound	Estimated LD50 (mice) (mice; [3])	Trail activity, maximum number of termites following (termites [1])	Median Lethal-dose (Reticulitermes flavipes)	Estimated LD50 (mice) (mice; [4])	Maximum attractiveness (above 50% level) (termites [2])	Maximum attractiveness (above 50% level), minimum (termites [2]; minimum)	Estimated LD50 (mice) (mice; [5])	Estimated LD50 (mice) (mice; estimate from comparison compound C10 satd.)
OCCCCCCCCCCCF [F(CH2)10 CH2 OH]	> 100 mg/kg	6/20	.062 mg/dish					
OCCCCCCCCCCCCF [F(CH2)11 CH2 OH, 12-fluorododecan-1-ol]	1.5 mg/kg	6/20	.0077 mg/dish					
OCC/C=C\C/C=C\CCCCCF [12-fluoro-(Z),(Z)-3,6-dodecadien-1-ol]			.012 mg/dish	1.5 mg/kg	10^-7 9	10^-8		
OCC/C=C\CCCCCCCCF [12-Fluoro-(Z)-3-dodecen-1-ol]			.0093 mg/dish	1.5 mg/kg	10^-7 9			
16-fluoro-Z/E 9-hexadecen-1-ol			0.020 mg/dish	1.5 mg/kg			4.0 mg/kg	
OCC/C=C\CCCCCCF [10-fluoro-(Z)-3-decen-1-ol]			.0095 mg/dish					1.0 mg/kg
OCCCCCCCC/C=C/CCCCCCF [16-fluoro-Z/E 9-hexadecen-1-ol]			0.024 mg/dish	1.5 mg/kg			4.0 mg/kg	
